In ChEMBL document CHEMBL2069252, “Pyrazole diaminopyrimidines as dual inhibitors of KDR and Aurora B kinases” (Bioorg Med Chem Lett, 2012):
≈ marks a conversion by molar mass, not a printed value. Calls of active or inactive are those of the source. The calls are words filed in the database; no cut-off is given here.

Biological target: T1, Vascular endothelial growth factor receptor 2 (Homo sapiens, UniProt P35968)
Test: Inhibition of KDR by HTRF analysis in presence of 1 mM ATP
Details: not given

T1 sequence (P35968 whole entry): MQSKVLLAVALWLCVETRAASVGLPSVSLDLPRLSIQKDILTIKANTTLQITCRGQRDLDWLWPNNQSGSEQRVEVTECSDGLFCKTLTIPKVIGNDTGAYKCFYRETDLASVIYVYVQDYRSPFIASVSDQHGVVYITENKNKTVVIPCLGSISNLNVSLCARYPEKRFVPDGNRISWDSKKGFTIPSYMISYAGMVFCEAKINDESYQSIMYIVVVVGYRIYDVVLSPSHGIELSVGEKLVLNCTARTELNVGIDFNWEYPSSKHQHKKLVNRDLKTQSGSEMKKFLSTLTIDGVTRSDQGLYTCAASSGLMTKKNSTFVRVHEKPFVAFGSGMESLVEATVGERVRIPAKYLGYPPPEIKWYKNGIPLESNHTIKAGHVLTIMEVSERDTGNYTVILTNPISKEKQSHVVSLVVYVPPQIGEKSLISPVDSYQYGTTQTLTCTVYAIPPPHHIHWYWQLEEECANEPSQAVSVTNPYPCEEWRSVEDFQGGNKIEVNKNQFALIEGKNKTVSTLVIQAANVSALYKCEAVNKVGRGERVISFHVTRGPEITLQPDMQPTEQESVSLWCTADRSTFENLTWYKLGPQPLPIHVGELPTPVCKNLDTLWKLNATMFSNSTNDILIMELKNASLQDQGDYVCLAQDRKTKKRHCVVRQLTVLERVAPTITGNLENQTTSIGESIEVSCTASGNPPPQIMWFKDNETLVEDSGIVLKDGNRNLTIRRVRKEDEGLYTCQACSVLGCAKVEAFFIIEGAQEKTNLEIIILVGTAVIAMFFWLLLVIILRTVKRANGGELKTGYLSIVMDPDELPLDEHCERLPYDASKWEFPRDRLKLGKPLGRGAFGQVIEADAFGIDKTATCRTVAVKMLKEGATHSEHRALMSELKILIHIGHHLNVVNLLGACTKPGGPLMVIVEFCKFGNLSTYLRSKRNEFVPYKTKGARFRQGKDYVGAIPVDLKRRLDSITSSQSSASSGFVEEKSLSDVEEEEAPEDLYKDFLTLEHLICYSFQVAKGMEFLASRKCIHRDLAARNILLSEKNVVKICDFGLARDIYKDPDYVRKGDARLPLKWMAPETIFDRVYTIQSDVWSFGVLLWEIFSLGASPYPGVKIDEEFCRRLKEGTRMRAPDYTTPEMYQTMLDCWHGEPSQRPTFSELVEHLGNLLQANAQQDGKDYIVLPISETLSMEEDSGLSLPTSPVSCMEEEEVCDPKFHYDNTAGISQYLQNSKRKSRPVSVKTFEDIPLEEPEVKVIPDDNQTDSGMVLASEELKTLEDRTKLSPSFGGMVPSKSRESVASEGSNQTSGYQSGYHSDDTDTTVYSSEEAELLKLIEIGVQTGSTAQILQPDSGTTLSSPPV

Structure (SMILES) | IC50 [nM]
Cn1cc(Nc2ncc([N+](=O)[O-])c(N[C@H]3[C@@H](C(N)=O)[C@@H]4C=C[C@H]3C4)n2)cn1 | 50
Cn1cc(Nc2ncc(Cl)c(N[C@@H]3CC[C@@H]3C(N)=O)n2)cn1 | 153
NC(=O)[C@@H]1[C@H](Nc2nc(Nc3cnn([C@@H]4CCCNC4)c3)ncc2Cl)[C@H]2C=C[C@@H]1C2 | 2
CNC(=O)[C@@H]1[C@H](Nc2nc(Nc3cnn(C)c3)ncc2C(F)(F)F)[C@H]2C=C[C@@H]1C2 | 68
Cn1cc(Nc2ncc(Cl)c(N[C@@H]3CCCC[C@@H]3C(N)=O)n2)cn1 | 169
Cn1cc(Nc2ncc(C(F)(F)F)c(N[C@H]3C[C@@H]4CC[C@H]3C4)n2)cn1 | 827
NC(=O)Cn1cc(Nc2ncc(Cl)c(N[C@H]3[C@@H](C(N)=O)[C@@H]4C=C[C@H]3C4)n2)cn1 | 18
NC(=O)[C@@H]1[C@H](Nc2nc(Nc3cnn(C[C@H]4CCCN4)c3)ncc2Cl)[C@H]2C=C[C@@H]1C2 | 15
Cn1cc(Nc2ncc(Cl)c(N[C@H]3[C@@H](C(N)=O)[C@@H]4C=C[C@H]3C4)n2)cn1 | 14
CCn1cc(Nc2ncc(Cl)c(N[C@H]3[C@@H](C(N)=O)[C@@H]4C=C[C@H]3C4)n2)cn1 | 3
CNC(=O)Cn1cc(Nc2ncc(Cl)c(N[C@H]3[C@@H](C(N)=O)[C@@H]4C=C[C@H]3C4)n2)cn1 | 6
Cn1cc(Nc2ncc(C(F)(F)F)c(N[C@H]3[C@@H](C(N)=O)C[C@H]4C[C@@H]3C4(C)C)n2)cn1 | 264
Cn1cc(Nc2ncc(Cl)c(N[C@H]3[C@@H](C(N)=O)[C@@H]4CC[C@H]3O4)n2)cn1 | 693
NC(=O)[C@@H]1[C@H](Nc2nc(Nc3cnn(CC(=O)O)c3)ncc2Cl)[C@H]2C=C[C@@H]1C2 | 1
NC(=O)[C@@H]1[C@H](Nc2nc(Nc3cnn(CCN4CCOCC4)c3)ncc2Cl)[C@H]2C=C[C@@H]1C2 | 9
COc1cnc(Nc2cnn(C)c2)nc1N[C@H]1[C@@H](C(N)=O)[C@@H]2C=C[C@H]1C2 | 922

Biological target: Aurora kinase B (Homo sapiens, UniProt Q96GD4)
Test: Inhibition of Aurora B kinase by HTRF analysis in presence of 1 mM ATP
Details: not given

Sequence of Aurora kinase B (Q96GD4 whole entry): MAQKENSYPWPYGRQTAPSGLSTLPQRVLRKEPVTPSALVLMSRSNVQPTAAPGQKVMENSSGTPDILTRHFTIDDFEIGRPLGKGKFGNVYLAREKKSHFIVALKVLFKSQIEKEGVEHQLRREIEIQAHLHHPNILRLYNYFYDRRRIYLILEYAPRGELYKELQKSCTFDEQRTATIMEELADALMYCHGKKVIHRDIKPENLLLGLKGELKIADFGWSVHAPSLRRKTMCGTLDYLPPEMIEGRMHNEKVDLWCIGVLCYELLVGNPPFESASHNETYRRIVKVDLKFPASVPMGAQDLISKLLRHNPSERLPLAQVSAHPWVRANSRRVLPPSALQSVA

Structure (SMILES) | IC50 [nM]
Cn1cc(Nc2ncc([N+](=O)[O-])c(N[C@H]3[C@@H](C(N)=O)[C@@H]4C=C[C@H]3C4)n2)cn1 | 15
Cn1cc(Nc2ncc(Cl)c(N[C@@H]3CC[C@@H]3C(N)=O)n2)cn1 | 44
NC(=O)[C@@H]1[C@H](Nc2nc(Nc3cnn([C@@H]4CCCNC4)c3)ncc2Cl)[C@H]2C=C[C@@H]1C2 | 12
CNC(=O)[C@@H]1[C@H](Nc2nc(Nc3cnn(C)c3)ncc2C(F)(F)F)[C@H]2C=C[C@@H]1C2 | 45
Cn1cc(Nc2ncc(Cl)c(N[C@@H]3CCCC[C@@H]3C(N)=O)n2)cn1 | 135
Cn1cc(Nc2ncc(C(F)(F)F)c(N[C@H]3C[C@@H]4CC[C@H]3C4)n2)cn1 | 61
NC(=O)Cn1cc(Nc2ncc(Cl)c(N[C@H]3[C@@H](C(N)=O)[C@@H]4C=C[C@H]3C4)n2)cn1 | 25
NC(=O)[C@@H]1[C@H](Nc2nc(Nc3cnn(C[C@H]4CCCN4)c3)ncc2Cl)[C@H]2C=C[C@@H]1C2 | 15
Cn1cc(Nc2ncc(Cl)c(N[C@H]3[C@@H](C(N)=O)[C@@H]4C=C[C@H]3C4)n2)cn1 | 29
CCn1cc(Nc2ncc(Cl)c(N[C@H]3[C@@H](C(N)=O)[C@@H]4C=C[C@H]3C4)n2)cn1 | 8
CNC(=O)Cn1cc(Nc2ncc(Cl)c(N[C@H]3[C@@H](C(N)=O)[C@@H]4C=C[C@H]3C4)n2)cn1 | 26
Cn1cc(Nc2ncc(C(F)(F)F)c(N[C@H]3[C@@H](C(N)=O)C[C@H]4C[C@@H]3C4(C)C)n2)cn1 | 43
Cn1cc(Nc2ncc(Cl)c(N[C@H]3[C@@H](C(N)=O)[C@@H]4CC[C@H]3O4)n2)cn1 | 118
NC(=O)[C@@H]1[C@H](Nc2nc(Nc3cnn(CC(=O)O)c3)ncc2Cl)[C@H]2C=C[C@@H]1C2 | 32
NC(=O)[C@@H]1[C@H](Nc2nc(Nc3cnn(CCN4CCOCC4)c3)ncc2Cl)[C@H]2C=C[C@@H]1C2 | 27
COc1cnc(Nc2cnn(C)c2)nc1N[C@H]1[C@@H](C(N)=O)[C@@H]2C=C[C@H]1C2 | 145

System: Mus musculus
Test: Toxicity in mouse xenografted with human DOHH2 cells assessed as mortality at 10 mg/kg, ip administered Q7d for 3 weeks
Details: in vivo, 504 h

Structure (SMILES) | Activity
Cn1cc(Nc2ncc(Cl)c(N[C@H]3[C@@H](C(N)=O)[C@@H]4C=C[C@H]3C4)n2)cn1 | Toxic

System: DOHH-2
Details: Homo sapiens
Description: Antitumor activity against human DOHH2 cells xenografted in mouse tumor model assessed as tumor growth inhibition at 10 mg/kg, ip administered Q7d for 3 weeks

Structure (SMILES) | TGI
Cn1cc(Nc2ncc(Cl)c(N[C@H]3[C@@H](C(N)=O)[C@@H]4C=C[C@H]3C4)n2)cn1 | Active

System: not listed separately
Test: AUC in CD1(ICR) mouse at 10 mg/kg, ip
Format: ADME, organism-based
Design: dose 10 mg/kg, route intraperitoneal
Details: plasma

Structure (SMILES) | AUC [µM·h]
NC(=O)[C@@H]1[C@H](Nc2nc(Nc3cnn([C@@H]4CCCNC4)c3)ncc2Cl)[C@H]2C=C[C@@H]1C2 | 15.7
NC(=O)Cn1cc(Nc2ncc(Cl)c(N[C@H]3[C@@H](C(N)=O)[C@@H]4C=C[C@H]3C4)n2)cn1 | 15
NC(=O)[C@@H]1[C@H](Nc2nc(Nc3cnn(C[C@H]4CCCN4)c3)ncc2Cl)[C@H]2C=C[C@@H]1C2 | 12.7
Cn1cc(Nc2ncc(Cl)c(N[C@H]3[C@@H](C(N)=O)[C@@H]4C=C[C@H]3C4)n2)cn1 | 11.1
CCn1cc(Nc2ncc(Cl)c(N[C@H]3[C@@H](C(N)=O)[C@@H]4C=C[C@H]3C4)n2)cn1 | 2.54
CNC(=O)Cn1cc(Nc2ncc(Cl)c(N[C@H]3[C@@H](C(N)=O)[C@@H]4C=C[C@H]3C4)n2)cn1 | 6.68

System: NCI-H1299
Test: Cell cycle arrest in human NCI-H1299 cells assessed as induction of polyploidy after 48 hrs by Hoechst staining-based fluorescence microscopic analysis
Format: functional
Details: NCI-H1299, 48 h

Structure (SMILES) | EC15 [nM]
Cn1cc(Nc2ncc([N+](=O)[O-])c(N[C@H]3[C@@H](C(N)=O)[C@@H]4C=C[C@H]3C4)n2)cn1 | 51
Cn1cc(Nc2ncc(Cl)c(N[C@@H]3CC[C@@H]3C(N)=O)n2)cn1 | 93
NC(=O)[C@@H]1[C@H](Nc2nc(Nc3cnn([C@@H]4CCCNC4)c3)ncc2Cl)[C@H]2C=C[C@@H]1C2 | 1
CNC(=O)[C@@H]1[C@H](Nc2nc(Nc3cnn(C)c3)ncc2C(F)(F)F)[C@H]2C=C[C@@H]1C2 | < 1
Cn1cc(Nc2ncc(C(F)(F)F)c(N[C@H]3C[C@@H]4CC[C@H]3C4)n2)cn1 | > 300
NC(=O)Cn1cc(Nc2ncc(Cl)c(N[C@H]3[C@@H](C(N)=O)[C@@H]4C=C[C@H]3C4)n2)cn1 | 19
NC(=O)[C@@H]1[C@H](Nc2nc(Nc3cnn(C[C@H]4CCCN4)c3)ncc2Cl)[C@H]2C=C[C@@H]1C2 | 11
Cn1cc(Nc2ncc(Cl)c(N[C@H]3[C@@H](C(N)=O)[C@@H]4C=C[C@H]3C4)n2)cn1 | < 3
CCn1cc(Nc2ncc(Cl)c(N[C@H]3[C@@H](C(N)=O)[C@@H]4C=C[C@H]3C4)n2)cn1 | < 1
CNC(=O)Cn1cc(Nc2ncc(Cl)c(N[C@H]3[C@@H](C(N)=O)[C@@H]4C=C[C@H]3C4)n2)cn1 | 11
Cn1cc(Nc2ncc(C(F)(F)F)c(N[C@H]3[C@@H](C(N)=O)C[C@H]4C[C@@H]3C4(C)C)n2)cn1 | 39
Cn1cc(Nc2ncc(Cl)c(N[C@H]3[C@@H](C(N)=O)[C@@H]4CC[C@H]3O4)n2)cn1 | 132
NC(=O)[C@@H]1[C@H](Nc2nc(Nc3cnn(CC(=O)O)c3)ncc2Cl)[C@H]2C=C[C@@H]1C2 | 28
NC(=O)[C@@H]1[C@H](Nc2nc(Nc3cnn(CCN4CCOCC4)c3)ncc2Cl)[C@H]2C=C[C@@H]1C2 | < 3

System: not listed separately
Test: Aqueous solubility of the compound at pH 7.4 after 24 hrs by chemiluminescent nitrogen detection
Format: physicochemical
Details: not given

Structure (SMILES) | solubility at 24 h [µM]
NC(=O)[C@@H]1[C@H](Nc2nc(Nc3cnn([C@@H]4CCCNC4)c3)ncc2Cl)[C@H]2C=C[C@@H]1C2 | 70 (≈ 30 µg/mL)
NC(=O)Cn1cc(Nc2ncc(Cl)c(N[C@H]3[C@@H](C(N)=O)[C@@H]4C=C[C@H]3C4)n2)cn1 | 68 (≈ 27.4 µg/mL)
NC(=O)[C@@H]1[C@H](Nc2nc(Nc3cnn(C[C@H]4CCCN4)c3)ncc2Cl)[C@H]2C=C[C@@H]1C2 | 86 (≈ 36.9 µg/mL)
Cn1cc(Nc2ncc(Cl)c(N[C@H]3[C@@H](C(N)=O)[C@@H]4C=C[C@H]3C4)n2)cn1 | 78 (≈ 28.1 µg/mL)
CCn1cc(Nc2ncc(Cl)c(N[C@H]3[C@@H](C(N)=O)[C@@H]4C=C[C@H]3C4)n2)cn1 | 70 (≈ 26.2 µg/mL)
CNC(=O)Cn1cc(Nc2ncc(Cl)c(N[C@H]3[C@@H](C(N)=O)[C@@H]4C=C[C@H]3C4)n2)cn1 | 72 (≈ 30 µg/mL)
NC(=O)[C@@H]1[C@H](Nc2nc(Nc3cnn(CC(=O)O)c3)ncc2Cl)[C@H]2C=C[C@@H]1C2 | 71 (≈ 28.7 µg/mL)
NC(=O)[C@@H]1[C@H](Nc2nc(Nc3cnn(CCN4CCOCC4)c3)ncc2Cl)[C@H]2C=C[C@@H]1C2 | 85 (≈ 39 µg/mL)

Biological target: T1, Vascular endothelial growth factor receptor 2
Test: Inhibition of human KDR autophosphorylation expressed in mouse NIH/3T3 cells
Format: cell-based, NIH3T3
Details: not given

Structure (SMILES) | IC50 [nM]
Cn1cc(Nc2ncc([N+](=O)[O-])c(N[C@H]3[C@@H](C(N)=O)[C@@H]4C=C[C@H]3C4)n2)cn1 | > 316
NC(=O)[C@@H]1[C@H](Nc2nc(Nc3cnn([C@@H]4CCCNC4)c3)ncc2Cl)[C@H]2C=C[C@@H]1C2 | 44
CNC(=O)[C@@H]1[C@H](Nc2nc(Nc3cnn(C)c3)ncc2C(F)(F)F)[C@H]2C=C[C@@H]1C2 | > 316
NC(=O)Cn1cc(Nc2ncc(Cl)c(N[C@H]3[C@@H](C(N)=O)[C@@H]4C=C[C@H]3C4)n2)cn1 | 167
NC(=O)[C@@H]1[C@H](Nc2nc(Nc3cnn(C[C@H]4CCCN4)c3)ncc2Cl)[C@H]2C=C[C@@H]1C2 | 49
Cn1cc(Nc2ncc(Cl)c(N[C@H]3[C@@H](C(N)=O)[C@@H]4C=C[C@H]3C4)n2)cn1 | 20
CCn1cc(Nc2ncc(Cl)c(N[C@H]3[C@@H](C(N)=O)[C@@H]4C=C[C@H]3C4)n2)cn1 | 8
CNC(=O)Cn1cc(Nc2ncc(Cl)c(N[C@H]3[C@@H](C(N)=O)[C@@H]4C=C[C@H]3C4)n2)cn1 | 89
NC(=O)[C@@H]1[C@H](Nc2nc(Nc3cnn(CC(=O)O)c3)ncc2Cl)[C@H]2C=C[C@@H]1C2 | > 316
NC(=O)[C@@H]1[C@H](Nc2nc(Nc3cnn(CCN4CCOCC4)c3)ncc2Cl)[C@H]2C=C[C@@H]1C2 | 78

System: not listed separately
Test: Metabolic stability of the compound in mouse liver microsomes assessed as compound remaining after 30 mins
Format: ADME, Microsome
Details: read-out: Stability

Structure (SMILES) | remaining at 0.5 h [%]
NC(=O)[C@@H]1[C@H](Nc2nc(Nc3cnn([C@@H]4CCCNC4)c3)ncc2Cl)[C@H]2C=C[C@@H]1C2 | 48
NC(=O)Cn1cc(Nc2ncc(Cl)c(N[C@H]3[C@@H](C(N)=O)[C@@H]4C=C[C@H]3C4)n2)cn1 | 68
NC(=O)[C@@H]1[C@H](Nc2nc(Nc3cnn(C[C@H]4CCCN4)c3)ncc2Cl)[C@H]2C=C[C@@H]1C2 | 48
Cn1cc(Nc2ncc(Cl)c(N[C@H]3[C@@H](C(N)=O)[C@@H]4C=C[C@H]3C4)n2)cn1 | 44
CCn1cc(Nc2ncc(Cl)c(N[C@H]3[C@@H](C(N)=O)[C@@H]4C=C[C@H]3C4)n2)cn1 | 13
CNC(=O)Cn1cc(Nc2ncc(Cl)c(N[C@H]3[C@@H](C(N)=O)[C@@H]4C=C[C@H]3C4)n2)cn1 | 88
NC(=O)[C@@H]1[C@H](Nc2nc(Nc3cnn(CC(=O)O)c3)ncc2Cl)[C@H]2C=C[C@@H]1C2 | > 95
NC(=O)[C@@H]1[C@H](Nc2nc(Nc3cnn(CCN4CCOCC4)c3)ncc2Cl)[C@H]2C=C[C@@H]1C2 | 4

System: Mus musculus
Test: Toxicity in mouse xenografted with human DOHH2 cells assessed as weight loss at 10 mg/kg, ip administered Q7d for 3 weeks
Details: in vivo, 504 h

Structure (SMILES) | Activity
Cn1cc(Nc2ncc(Cl)c(N[C@H]3[C@@H](C(N)=O)[C@@H]4C=C[C@H]3C4)n2)cn1 | Toxic
